Source: patent US4345938A, “Herbicidal 2-haloacetanilides” (Monsanto Company, priority 1980, dated 1982)
Converted amounts (≈) assume the structure as drawn.

Assays:
Assay type in all cases: in vivo
[1] = Fish toxicity (carp), Japanese protocol; settings: in vivo, carp (7 cm), read-out: TLM, Median Tolerance Limit (LC50)
Description: (§1) In view of the importance of fish toxicity considerations, tests were conducted with the compound of Example 1 on carp (7 cm) according to Japanese protocol; test data are shown in Table VII. Since U.S. Pat. No. 3,955,959 mentioned above discloses carp toxicity data for butachlor (Compound A) and terbuchlor (Compound C), also obtained according to Japanese protocol, the toxicity data in said U.S. Pat. No. 3,955,959 for these compounds is also presented in Table VII for comparative purposes.

Carp = experiment: Fish toxicity (carp), Japanese protocol
Description: as §1

Canada Thistle = experiment: Pre-emergent herbicidal test, Canada Thistle; settings: Table I; further: ranges in brackets are in %
Description: (§2) A good grade of top soil is placed in aluminum pans and compacted to a depth of three-eights to one-half inch from the top of the pan. On the top of the soil is placed a number of seeds or vegetative propagules of various plant species. The soil required to level fill the pans after seeding or adding vegetative propagules is weighted into a pan. The soil and a known amount of the active ingredient applied in a solvent or as a wettable powder suspension are thoroughly mixed, and used to cover the prepared pans. After treatment, the pans are moved into a greenhouse bench where they are watered by subirrigation as needed to give adequate moisture for germination and growth.
(§3) Approximately 2 weeks after seeding and treating, the plants were observed and the results recorded. The herbicidal rating was obtained by means of a fixed scale based on the percent injury of each plant species. The ratings are defined as follows: […]

Crabgrass = experiment: Pre-emergent herbicidal test, Crabgrass; settings: Table II; further: ranges in brackets are in %
Description: as §2, §3
The compounds were further tested by utilizing the above procedure on the following plant species: […]

yellow foxtail = experiment: Sugarbeet greenhouse test, YFT; settings: in sugarbeets
Description: (§4) In the discussion of data below, occasional reference is made to herbicide application rates symbolized as "GR15 " and "GR85 "; these rates are given in kilograms per hectare (kg/ha) which are convertible into pounds per acre (lbs/A) by dividing the kg/ha rate by 1.12.
(§5) A further guide to the effectiveness of a chemical as a selective herbicide is the "selectivity factor" ("SF") for a herbicide in given crops and weeds. The selectivity factor is a measure of the relative degree of crop safety and weed injury and is expressed in terms of the GR15 /GR85 ratio, i.e., the GR15 rate for the crop divided by the GR85 rate for the weed, both rates in kg/ha (lb/A.)
(§6) In further tests in the greenhouse, the compound of Example 2 was tested for its activity against annual weeds in sugarbeets at test rates within the range of 0.07 to 1.12 kg/ha (0.0625 to 1.0 lb/A). The GR15 and GR85 rates for sugarbeets and the various weeds are shown in Table VI; the selectivity factors for the herbicide against the weeds in sugarbeets are shown in parentheses below the weeds; "NS" means non-selective within the test limits. The following abbreviations are used in the table: barnyardgrass (BYG), wild oats (WO), downy brome (DB); redroot pigweed (RRP), blackgrass (BG), large crabgrass (LCG) and yellow foxtail (YFT).

Sugarbeets = experiment: Sugarbeet greenhouse test, crop tolerance
Description: as §4, §6

large crabgrass = experiment: Sugarbeet greenhouse test, LCG; settings: in sugarbeets
Description: as §4, §5, §6

Barnyardgrass = experiment: Sugarbeet greenhouse test, BYG; settings: in sugarbeets
Description: as §4, §5, §6

redroot pigweed = experiment: Sugarbeet greenhouse test, RRP; settings: in sugarbeets
Description: as §4, §5, §6

blackgrass = experiment: Sugarbeet greenhouse test, BG; settings: in sugarbeets
Description: as §4, §5, §6

wild oats = experiment: Sugarbeet greenhouse test, WO; settings: in sugarbeets
Description: as §4, §5, §6

Downy Brome = experiment: Sugarbeet greenhouse test, DB; settings: in sugarbeets
Description: as §4, §5, §6

SMILES: CCCCOc1cccc(CC)c1N(C)C(=O)CCl [Example 1, N-methyl-2'-n-butoxy-6'-ethyl-2-chloroacetanilide]
- LC50 at 96 h ([1]; 96 Hours): 2.4 µg/mL (≈ 8.46 µM)
- LC50 at 48 h ([1]; 48 hours): 3.2 µg/mL (≈ 11.3 µM)
- expected fish kill relative to Compound A (Carp; at expected use rates, vs Compound A): only one-sixth
- toxicity to carp relative to Compound A (Carp; vs Compound A): less than one-third as toxic
- toxicity to carp relative to Compound C (Carp; vs Compound C): almost one-half as toxic
- Rating, Canada Thistle (Canada Thistle; 5.6 kg/h): 3 (75-100)
- Rating, Canada Thistle (Canada Thistle; 11.2 kg/h): 3 (75-100)
- Rating, Crabgrass (Crabgrass; 0.006 kg/h): 1 (25-49)
- Rating, Crabgrass (Crabgrass; 0.01 kg/h): 3 (75-100)
- Rating, Crabgrass (Crabgrass; 0.06 kg/h): 3 (75-100)
- Rating, Crabgrass (Crabgrass; 0.28 kg/h): 3 (75-100)
- Rating, Crabgrass (Crabgrass; 1.12 kg/h): 3 (75-100)
- Rating, Crabgrass (Crabgrass; 5.6 kg/h): 3 (75-100)

SMILES: CCCCOc1cccc(CC)c1N(CC)C(=O)CCl [Example 2, N-ethyl-2'-n-butoxy-6'-ethyl-2-chloroacetanilide]
- GR85 Rate, YFT (yellow foxtail): < 0.07 Kg/Ha
- selectivity factor, YFT (yellow foxtail): > 8.0
- GR15 Rate, Sugarbeets (Sugarbeets): 0.56 Kg/Ha
- GR85 Rate, LCG (large crabgrass): 0.07 Kg/Ha
- selectivity factor, LCG (large crabgrass): 8.0
- GR85 Rate, BYG (Barnyardgrass): < 0.07 Kg/Ha
- selectivity factor, BYG (Barnyardgrass): > 8.0
- GR85 Rate, RRP (redroot pigweed): > 1.12 Kg/Ha
- selectivity factor, RRP (redroot pigweed): NS (non-selective within the test limits)
- GR85 Rate, BG (blackgrass): 0.21 Kg/Ha
- selectivity factor, BG (blackgrass): 2.7
- GR85 Rate, WO (wild oats): 0.28 Kg/Ha
- selectivity factor, WO (wild oats): 2.0
- GR85 Rate, DB (Downy Brome): 0.14 Kg/Ha
- selectivity factor, DB (Downy Brome): 4.0
